Measurements from paper PMC11847541, “Liver fatty acid binding protein FABP1 transfers substrates to cytochrome P450 4A11 for catalysis” (The Journal of Biological Chemistry, 2025).
Entries after “also recorded” stand apart in the source; their conditions may differ. Like-named read-outs stand apart in the source and are kept apart here.

What was measured:
FABP1 [1] = target: T1, FABP1 (Homo sapiens, UniProt P07148); assay: Fluorescence titration of DAUDA with FABP1 (reverse titration); type: binding; conditions: DAUDA 50 nM, FABP1 titrated, quadratic fit
T1 construct: GST (N, cleaved yes); made in house; host or cells: Escherichia coli DH5α
T1 sequence (P07148 with tags, fused parts or gaps): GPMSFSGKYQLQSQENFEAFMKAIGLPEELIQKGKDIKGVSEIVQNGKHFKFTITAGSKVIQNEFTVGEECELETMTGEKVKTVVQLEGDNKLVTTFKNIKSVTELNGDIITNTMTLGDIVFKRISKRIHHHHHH
Experimental: Binding of DAUDA to FABP1 was assessed in a “reverse titration” where FABP1 was titrated into a fixed concentration of DAUDA (50 nM), yielding a characteristic gain of fluorescence (Fig. 4A) at 482 nm. FABP1 was titrated into a solution of DAUDA (“reverse titration”) and not vice versa because of the intrinsic fluorescence of DAUDA (Fig. S11E), which overlaps with the spectrum of DAUDA–FABP1 (Fig. 4A). The intrinsic fluorescence of DAUDA was generally only problematic at concentrations much higher (>500 nM) than used in the assays (50 nM), though we sought to eliminate this additional variable by performing the reverse titration to estimate the Kd.
Figure 4 Fluorescence titration of DAUDA with FABP1 (“reverse” titration).A, fluorescence spectra (λex = 335 nm) of DAUDA (0.05 μM) collected with increasing concentrations of FABP1 (0–1.25 μM). The binding of DAUDA to FABP1 is accompanied by a gain of fluorescence, indicated with an arrow. B, titration curve calculated with data points (n = 1) at the observed fluorescence maximum (482 nm) and plotted versus concentration of FABP1. Data were fit to a quadratic equation. DAUDA, 11-dansylaminoundecanoic acid; FABP1, fatty acid binding protein. […]

[2] = Stability of DAUDA stock solutions; type: physicochemical
Experimental: DAUDA stock solutions (10 mM, prepared in C2H5OH) could be stored at −20 °C for up to 1 week with no significant decay of the UV spectrum and no formation of degradation peaks in the LC–MS chromatogram. Storage under these conditions for more than 1 week did compromise sample integrity (and the samples were discarded). We later observed that DAUDA stock solutions (10 mM) prepared in 50 mM K2CO3 and frozen at −80 °C could undergo several freeze–thaw cycles over the course of 2 months with no significant decay of the UV spectrum and no formation of degradation peaks in the LC–MS chromatogram.

P450 4A11 = target: T2, P450 4A11 (Homo sapiens, UniProt Q02928); assay: Equilibrium binding titrations of P450 4A11 with lipids (heme Soret spectral shift); conditions: P450 1 µM, DAUDA 1 nM to 10 µM
T2 sequence (Q02928 5-519): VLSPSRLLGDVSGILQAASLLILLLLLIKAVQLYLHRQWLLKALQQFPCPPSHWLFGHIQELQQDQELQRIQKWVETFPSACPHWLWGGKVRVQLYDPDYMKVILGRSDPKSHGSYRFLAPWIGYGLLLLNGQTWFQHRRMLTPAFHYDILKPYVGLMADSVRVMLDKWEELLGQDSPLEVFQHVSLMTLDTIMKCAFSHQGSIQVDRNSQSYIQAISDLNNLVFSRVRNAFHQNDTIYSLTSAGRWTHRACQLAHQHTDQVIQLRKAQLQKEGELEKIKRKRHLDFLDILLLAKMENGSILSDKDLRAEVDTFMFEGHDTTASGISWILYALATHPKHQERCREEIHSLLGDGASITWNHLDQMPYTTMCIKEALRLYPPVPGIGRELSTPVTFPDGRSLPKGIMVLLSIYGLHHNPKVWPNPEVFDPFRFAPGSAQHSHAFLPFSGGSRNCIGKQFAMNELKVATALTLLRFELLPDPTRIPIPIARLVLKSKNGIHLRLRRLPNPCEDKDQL
Experimental: Affinity of palmitate and 16-OH palmitate for P450 4A11 (1 μM) was assessed by monitoring the blue shift (from ∼420 nm to ∼390 nm) of the P450 heme Soret band as a substrate binds and displaces the sixth axial heme ligand (H2O) to yield pentacoordinated heme (“type I” shift) ([26]).
P450 4A11 (1 μM) was titrated with (A) palmitate and (B) 16-OH palmitate in a 1.0 cm pathlength cell. Difference plots were calculated from absorbance maxima (∼390 nm) and minima (∼420 nm), and the data were fit to a hyperbolic equation. The insets in each panel are the difference spectra between a cuvette that received the lipid substrate and a cuvette that received solvent alone. Each data point corresponds to one independent replicate.
Equilibrium binding titrations with P450 4A11 (1 μM) were performed in buffer (100 mM potassium phosphate [pH 7.4]) as described previously ([44], [56]). Briefly, a baseline was first acquired on an OLIS-Cary 14 spectrophotometer set to scan from 350 to 500 nm in 1 cm glass cuvettes. […] The cuvettes were mixed with a plumper after additions, and spectra were recorded. The spectra were exported into Microsoft Excel software, and the absorbance values at 418 nm were subtracted from those at 390 nm and the values were plotted as a function of lipid concentration.
Titration of P450 4A11 with DAUDA. The P450 concentration was 1 µM and the DAUDA concentration was varied using a geometric series from 1 nM to 10 µM. […] The increase in absorbance in the UV region is due to the strong chromophore in the DAUDA dansyl moiety (Fig. S8).

FABP1 [3] = target: T1, FABP1; conditions: cited from earlier work
FABP1 [4] = target: T1, FABP1; assay: Stopped-flow kinetics of DAUDA binding to FABP1
Experimental: In order to measure the rate of binding of DAUDA to FABP1, four concentrations (0.5–12.5 μM) of DAUDA were rapidly mixed with FABP1 (0.5 μM), and the gain of fluorescence (at 482 nm, Fig. 4A) was monitored over time (Fig. 6, A–D). […] A kon value (k4) of 9.0 ± 0.2 × 10^7 M^−1 s^−1 was calculated from the data (see the Experimental procedures section) (Fig. 6F).
Figure 6 Kinetics of binding of DAUDA to FABP1. FABP1 (0.5 μM) was mixed with (A) 0.5 μM, (B) 2.5 μM, (C) 5 μM, and (D) 12.5 μM DAUDA to yield the binding traces shown. DAUDA–FABP1 was excited (λex = 335 nm) as in Fig. 4 and total fluorescence signal >420 nm was collected. Data were fit to double exponential curves, and (E) the rate of the fast phase was extracted and plotted against DAUDA concentration. The data curve was fit to a Michaelis–Menten-type hyperbola. Each trace corresponds to ≥6 averaged replicate traces. In part A, the binding of DAUDA (0.5 μM) was proportional to the disappearance of protein (0.5 μM). The reciprocal concentration of FABP1 was plotted against time in part F, and the slope of the linear portion (linear regression in red) of that curve ([77]) gave an on-rate (kon) of 9.0 × 10^7 M^−1 s^−1. DAUDA, 11-dansylaminoundecanoic acid; FABP1, fatty acid binding protein.
Determination of the DAUDA on-rate (kon) to FABP1 was performed by mixing FABP1 (1 μM) and DAUDA ([…], see “Preparation of DAUDA stock solutions”) solutions (both in 100 mM potassium phosphate buffer, pH 7.4) in equal proportion (yielding a twofold dilution of all reaction components) using an OLIS stopped-flow spectrofluorometer with the parameters set as described earlier (see “P450 4A11 kon determinations”). […] At least six replicate measurements were recorded, the spectra were processed such that the fluorescence gain (from DAUDA binding) began at an (x, y) intercept of (0, 0), and the spectra were averaged and fit to double exponential plots in GraphPad Prism, and the rates for the fast (kon) and slow phases of binding were extracted. Then, as the first experiment was recorded by mixing equimolar (1 μM) concentrations of FABP1 and DAUDA and the binding was rapid, we approximated the binding as 2A → C (i.e., mathematically equivalent to A + B → C when the depletion of B is equal to the depletion of A ([77])). We plotted [FABP]^−1 as a function of time and fit the data to a linear equation (the slope of which is kon).

For `CN(C)c1cccc2c(S(=O)(=O)NCCCCCCCCCCC(=O)O)cccc12` [DAUDA, 11-dansylaminoundecanoic acid], which Kd (FABP1 [1]) is on record?
Its Kd is 56 nM.

What about the “storage time with no significant decay of UV spectrum and no degradation peaks” value ([2]; 10 mM in 50 mM K2CO3, −80 °C, several freeze–thaw cycles) of the same molecule?
The value was 2 months.

And the “storage time with no significant decay of UV spectrum and no degradation peaks” value ([2]; 10 mM in C2H5OH, −20 °C)?
The value was “up to 1 week”.

What about the “binding to P450 4A11 (type I spectral shift)” value (P450 4A11) of the same molecule?
The value was “not detected; also recorded: did not bind”.

What about the Kd (FABP1 [3]; human ortholog, high-affinity site, read-out: Kd,1) of the same molecule?
Its Kd is 200 nM.

And the Kd (FABP1 [3]; human ortholog, low-affinity site, read-out: Kd,2)?
The Kd was > 3300 nM.

And the Kd (FABP1 [3]; literature estimate, high-affinity site, read-out: Kd)?
Its Kd is > 460 nM.

And the kon (FABP1 [4]; FABP1 0.5 μM, DAUDA 0.5 μM, read-out: kon of DAUDA to FABP1 (k4))?
The kon was 9e+07 M⁻¹ s⁻¹.

And the koff (FABP1 [4]; calculated from kon and Kd)?
The koff was 5 s⁻¹.

What about the “koff from FABP1 relative to koff from P450 4A11” value (FABP1 [4]; faster) of the same molecule?
Its value is 25 fold.

And the “kon of DAUDA to FABP1 relative to palmitate binding to P450 4A11” value (FABP1 [4]; faster)?
The value was > 2000 fold.
